Measurements from PMC3834928, “SNEDDS Containing Poorly Water Soluble Cinnarizine; Development and in Vitro Characterization of Dispersion, Digestion and Solubilization” (Pharmaceutics, 2012).
Converted amounts (≈) assume the structure as drawn.

How the values were obtained:
[1] = Solubility of cinnarizine in SNEDDSs, excipients and buffer (excess drug, end-over-end rotation, HPLC); assay type: physicochemical
Protocol: An excess of cinnarizine was added to the SNEDDSs, selected excipients (sesame oil and oleic acid) and 100 mM TRIS maleate buffer, pH 6.5. The resulting suspensions were placed in an end-over-end rotating device protected from light at 25 °C for the SNEDDSs and at 37 °C for the excipients and buffer; the temperatures were selected for storage purpose and for its physiological relevance, respectively. Samples were withdrawn at specified time points, i.e., 28, 50, and 72 h for the SNEDDSs, 22 h and 48 h for the excipients, and at 51 h and 75 h for the buffer. Samples were centrifuged at 15,000 rpm for 45 min (Biofuge 15, Hereaus-Sepatech, Oterode, Germany). Between two and three drops of supernatant were weighed in a 10 mL volumetric flask and diluted with ethanol. This solution was further diluted with mobile phase to an appropriate concentration. Samples from the buffer were diluted with mobile phase. Quantification of cinnarizine was performed as described in the analytical section. The determination of solubility was considered attained when samples from two consecutive time points varied by less than 5%. The solubilities were determined in triplicate.
(§1) The concentration of cinnarizine was determined using a HPLC method. A HPLC system (Hitachi, Merck, Darmstadt, Germany) equipped with a D-7000 interface, an L-7200 autosampler, a L-7100 pump, a L-7300 column oven (35 °C), and a L-7400 UV detector or a L-7480 fluorescence detector. Data was processed by using HPLC System Manager Version 4.0 from Merck (Darmstadt, Germany). Chromatographic separation was obtained using a Luna C18 150 × 4.6 mm, 5 µm, column and a C18 guard column (Phenomenex, Torrance, CA, USA). The mobile phase consisted of 50% (v/v) acetonitrile and 50% (v/v) 20 mM ammonium dihydrogen phosphate monobasic buffer, pH 4.5. The temperature of the column was maintained at 35 °C and the flow rate and injection volume were 1 mL/min and 25 µL, respectively. The UV detection was carried out at 253 nm and quantification was performed from peak areas using a six point linear standard curve ranging from 0.25–4 µg/mL.

[2] = Colloidal dispersion of SNEDDSs in FaSSGF pH 1.6 (USP II apparatus); assay type: physicochemical; conditions: FaSSGF pH 1.6, 37 °C, during the experiment (60 min), all four SNEDDSs
Protocol: as §1
Colloidal dispersion studies were performed in 250 mL fasted-state, simulated gastric fluid (FaSSGF) at pH 1.6. […] A quantity of 1 g of each SNEDDS containing 25 mg cinnarizine was weighed on a watch glass, and the glass with formulation was gently slid down the vessel wall to the bottom of the dissolution vessel and thereby introduced into the dispersion medium. […]

[3] = log POct/W; cited from earlier work
[4] = cited from earlier work
[5] = cited from earlier work; remark: listed apart in the source
[6] = parameters: method as in PMID 7616366; conditions: dogs, n = 4, mean ± SEM; cited from earlier work

Structure (SMILES) | solubility ([1]; 100 mM TRIS maleate buffer pH 6.5, 37 °C, n = 3, read-out: Aqueous solubility (37 °C)) [µg/mL] | Cinnarizine solubility in SNEDDS I ([1]; in SNEDDS I preconcentrate, 25 °C, mean ± SD (n = 3)) [mg/g] | Cinnarizine solubility in SNEDDS II ([1]; in SNEDDS II preconcentrate, 25 °C, mean ± SD (n = 3)) [mg/g] | Cinnarizine solubility in SNEDDS III ([1]; in SNEDDS III preconcentrate, 25 °C, mean ± SD (n = 3)) [mg/g] | Cinnarizine solubility in SNEDDS IV ([1]; in SNEDDS IV preconcentrate, 25 °C, mean ± SD (n = 3)) [mg/g] | Cinnarizine solubility in oleic acid ([1]; in oleic acid, 37 °C, mean ± SD (n = 3)) [mg/g] | Cinnarizine solubility in sesame oil ([1]; in sesame oil, 37 °C, mean ± SD (n = 3)) [mg/g] | Precipitation of cinnarizine during colloidal dispersion [2] | Log P [3] | pKa [4] | Cinnarizine solubility in oleic acid (previous study) ([5]; in oleic acid, 25 °C) [mg/g] | Solubility of cinnarizine in water at low pH ([5]; pH 1.3) [µg/mL] | Bioavailability from a conventional capsule [6] | Bioavailability from an aqueous suspension formulation [6] | pKa in water ([4]; in water) | apparent pKa in mixed bile acid/phospholipid micelles ([4]; incorporated into mixed bile acid/phospholipid micelles)
C(=C\c1ccccc1)/CN1CCN(C(c2ccccc2)c2ccccc2)CC1 [Cinnarizine, cinnarizine] | 0.39 ± 0.1 (≈ 1.06 µM) | 67.4 ± 0.9 | 58.8 ± 0.5 | 36.4 ± 0.7 | 28.3 ± 0.8 | 335 ± 3 | 25.7 ± 0.4 | not observed | 5.77 [16] | 1.95 [18] | 237 | 853 | 0.8% ± 0.4% | 8% ± 4% | – | –
CCCCCCCC/C=C\CCCCCCCC(=O)O [oleic acid] | – | – | – | – | – | – | – | – | – | – | – | – | – | – | 9.85 | 6.5
